Source: publication PMC7291522 (Thrombosis Journal, 2020)
One block for each compound: values may come before it.

Experiments:
[1] = test system: healthy elderly Japanese male subjects; conditions: in vivo
Description: (§2) This study was a randomized, open-label, parallel-group, repeated-dose study conducted at a single center.
(§3) We measured BT by the Ivy method [12] using a needle type of BD Microtainer Contact-Activated Lancet device (Becton, Dickinson and Company, USA). The incision was made in the lateral aspect of the forearm by puncturing at one arbitrary site with the device. After the incision, we blotted the blood every 30 s with filter paper until the bleeding reached hemostasis and recorded the time from the puncture to the end of bleeding. When the time to hemostasis exceeded 10 min, it was recorded as such, ending the observation. […] Baseline BT was measured on the day of admission at approximately the same time of day as the BT evaluations on Day 3 and Day 8, 3 hours after the administration of study drug(s).
(§4) For the primary endpoint analysis, a logarithmically converted value of BT for each sample was the dependent variable in a linear mixed model with fixed and random effects.

[2] = Plasma edoxaban pharmacokinetics (LC-MS/MS, noncompartmental analysis); conditions: 30 mg edoxaban alone, Day 3; for AUC / Cmax / Tmax: male, human, in vivo, 30 mg; for AUC: AUCtau,ss of edoxaban; for Cmax: Cmax,ss of edoxaban; for Tmax: tmax,ss of edoxaban
Description: Plasma samples were obtained by centrifugation, and the samples were immediately frozen at − 20 °C or lower.
Summary statistics were calculated for baseline and postdose values for the primary endpoint of BT and secondary endpoints of PD indices (PT, aPTT, F1 + 2, PRU) for each target population. […] 8.1 based on Model 1200 (Extravascular). AUCtau,ss was calculated by the linear-Log trapezoidal method.
For the secondary endpoints analysis, we used the logarithmically converted PK parameters (Cmax,ss, AUCtau,ss, tmax,ss) as dependent variables in a linear mixed model with fixed and variable effects.

[3] = test system: platelet aggregation; test: P2Y12 reaction units (PRU), VerifyNow system; assay type: in vivo, human; conditions: 30 mg edoxaban alone, Day 3
Description: (§1) Blood was collected in a vacuum blood collection tube containing 3.2% sodium citrate, and the schedule for the blood sample collection is shown in Table 1. Blood coagulation marker PT was measured by PT reagent Thrombocheck-PT in system CS-200i (Sysmex Corporation, Japan); aPTT by aPTT reagent HemosIL SynthASil in system ACL TOP Base (IL, Japan; Instrumentation Laboratory, USA) and F1 + 2 by ELISA Enzygnost F1 + 2 monoclonal reagent in system Behring ELISA Processor III and DiaSorin (BIT Analytical Instruments GmbH, Germany). These assays were carried out at LSI Medience Corporation (Tokyo, Japan). We measured PRU with VerifyNow system (Instrumentation Laboratory, Bedford, MA, USA) at Sumida Hospital.

[4] = test system: blood coagulation; test: Activated partial thromboplastin time (aPTT), HemosIL SynthASil reagent; assay type: in vivo, human; conditions: 30 mg edoxaban, Day 3
Description: as §1

[5] = test system: healthy elderly Japanese male subjects; test: Safety: adverse events in the clinical pharmacology study; conditions: 30 mg edoxaban alone, 24 participants
[6] = test system: healthy elderly Japanese male subjects; test: Bleeding time (BT) by the Ivy method; conditions: 30 mg edoxaban once daily for 3 days, Day 3, 3 h after administration
Description: as §2, §3, §4

- Dose dependence of the effect of prasugrel on BT [1]: dose-dependent
SMILES: CC(=O)Oc1cc2c(s1)CCN(C(C(=O)C1CC1)c1ccccc1F)C2 (stereo not drawn) [prasugrel]

- tmax,ss of edoxaban, Mean (SD) ([2]; Group 2, n = 12): 1.0 (0.84) h
- AUC ([2]; Mean (SD), Group 1, n = 12): 1060 ng·h/mL
- AUC ([2]; Mean (SD), Group 2, n = 12): 1070 ng·h/mL
- AUC ([2]; Median (IQR), Group 1, n = 12): 1020 ng·h/mL
- AUC ([2]; Median (IQR), Group 2, n = 12): 992 ng·h/mL
- Cmax ([2]; Mean (SD), Group 1, n = 12): 216 ng/mL
- Cmax ([2]; Mean (SD), Group 2, n = 12): 191 ng/mL
- Cmax ([2]; Median (IQR), Group 1, n = 12): 200 ng/mL
- Cmax ([2]; Median (IQR), Group 2, n = 12): 170 ng/mL
- Tmax ([2]; Mean (SD), Group 1, n = 12): 72 min
- Tmax ([2]; Median (IQR), Group 1, n = 12): 45 min
- Tmax ([2]; Median (IQR), Group 2, n = 12): 30 min
- Bleeding time, Mean (SD) ([6]; Group 1, n = 12): 3.5 (0.6) min
- Bleeding time, Median (IQR) ([6]; Group 1, n = 12): 3.5 (3.0–4.0) min
- Bleeding time, Mean (SD) ([6]; Group 2, n = 12): 4.7 (1.6) min
- Bleeding time, Median (IQR) ([6]; Group 2, n = 12): 4.5 (3.3–6.0) min
SMILES: CN1CCc2nc(C(=O)N[C@@H]3C[C@@H](C(=O)N(C)C)CC[C@@H]3NC(=O)C(=O)Nc3ccc(Cl)cn3)sc2C1 [Edoxaban, edoxaban]
- Effect on PRU [3]: essentially had no effect
- aPTT, mean ([4]; Group 1, baseline 31.9): 38.0 s
- aPTT, mean ([4]; Group 2, baseline 34.2): 39.9 s
- Positive results in the fecal occult blood test (number) [5]: four
